Assay results reported in ChEMBL document CHEMBL5376006, “Discovery of a Hidden Pocket beneath the NES Groove by Novel Noncovalent CRM1 Inhibitors” (J Med Chem, 2023).
Values belong to the molecule of their own block, whether it stands above or below them. Active and inactive are the calls of the source. No cut-off for these calls is given here.

Tests used:
Exportin-1 [1] = target: T1, Exportin-1 (Homo sapiens, UniProt O14980); experiment: Inhibition of CRM1 (unknown origin) binding to GST-tagged NES PKI assessed as CRM1/NES band ratio incubated for 1.5 hrs by Coomassie brilliant blue staining based pull-down assay (reference value: 1.00); parameters: concentration or dose not given beside the values
Exportin-1 [2] = target: T1, Exportin-1; experiment: Inhibition of CRM1 (unknown origin) binding to GST-tagged NES PKI at 100 uM incubated for 1.5 hrs by Coomassie brilliant blue staining based pull-down assay
Exportin-1 [3] = target: T1, Exportin-1; experiment: Inhibition of CRM1 (unknown origin) binding to GST-tagged NES PKI assessed as CRM1/NES band ratio at 20 uM incubated for 1.5 hrs by Coomassie brilliant blue staining based pull-down assay
HeLa = experiment: Antiproliferative activity against human HeLa cells assessed as inhibition of cell growth at 20 uM incubated for 72 hrs by SRB assay; type: functional, cell-based
Exportin-1 [4] = target: T1, Exportin-1; experiment: Inhibition of GFP-fused CRM1 cargo nuclear export in human HeLa cells at 200 uM incubated for 4 hrs by confocal microscopic analysis; type: cell-based
Exportin-1 [5] = target: T1, Exportin-1; experiment: Inhibition of CRM1 cargo nuclear export in human MCF7 cells at 50 uM incubated for 4 hrs by confocal microscopic analysis; type: cell-based

T1 sequence (O14980 whole entry): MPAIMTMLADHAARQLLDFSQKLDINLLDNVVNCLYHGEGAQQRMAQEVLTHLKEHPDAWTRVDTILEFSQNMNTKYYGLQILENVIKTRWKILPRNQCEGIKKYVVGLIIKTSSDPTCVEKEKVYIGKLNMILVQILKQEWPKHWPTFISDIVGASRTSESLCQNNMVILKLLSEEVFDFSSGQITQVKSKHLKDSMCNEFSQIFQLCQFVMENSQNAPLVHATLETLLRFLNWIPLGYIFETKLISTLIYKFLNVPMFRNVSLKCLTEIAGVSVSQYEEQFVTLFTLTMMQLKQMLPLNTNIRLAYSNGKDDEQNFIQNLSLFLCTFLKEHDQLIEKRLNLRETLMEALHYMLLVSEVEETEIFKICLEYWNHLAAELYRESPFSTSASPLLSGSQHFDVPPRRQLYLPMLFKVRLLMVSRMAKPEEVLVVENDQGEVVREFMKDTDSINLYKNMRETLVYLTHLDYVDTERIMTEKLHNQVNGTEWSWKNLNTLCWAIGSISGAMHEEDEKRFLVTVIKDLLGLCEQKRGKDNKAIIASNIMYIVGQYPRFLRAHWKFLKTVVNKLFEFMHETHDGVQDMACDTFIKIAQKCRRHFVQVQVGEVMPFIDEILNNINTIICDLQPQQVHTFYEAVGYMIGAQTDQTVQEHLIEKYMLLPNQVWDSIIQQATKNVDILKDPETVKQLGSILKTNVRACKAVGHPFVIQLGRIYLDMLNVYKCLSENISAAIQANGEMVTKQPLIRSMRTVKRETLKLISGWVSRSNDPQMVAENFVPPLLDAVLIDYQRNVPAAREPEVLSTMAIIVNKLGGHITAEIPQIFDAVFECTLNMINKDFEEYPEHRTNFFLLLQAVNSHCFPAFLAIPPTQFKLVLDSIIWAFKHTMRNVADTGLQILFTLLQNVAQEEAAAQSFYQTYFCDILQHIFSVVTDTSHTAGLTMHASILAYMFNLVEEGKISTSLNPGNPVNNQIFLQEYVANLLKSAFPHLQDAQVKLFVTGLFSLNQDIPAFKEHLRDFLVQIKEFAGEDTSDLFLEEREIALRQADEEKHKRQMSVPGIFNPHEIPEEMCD

- Ratio (Exportin-1 [1]): 0.83
SMILES: O=C(O)c1ccc(N2CCN(c3ccc(F)cc3)CC2)c(NS(=O)(=O)c2cc(F)ccc2F)c1

- Ratio (Exportin-1 [1]): 1.13
SMILES: Cc1cccc(C(=O)Nc2cc(C(=O)O)ccc2N2CCN(c3ccccc3F)CC2)c1

- Ratio (Exportin-1 [1]): 0.81
SMILES: Cc1cccc(C(=O)Nc2cc(C(=O)O)ccc2N2CCC(N3CCCCC3)CC2)c1

- inhibition (Exportin-1 [2]): inactive
SMILES: COC(=O)c1ccc(N2CCN(c3cc(C(F)(F)F)ccc3C)CC2)c(NC(=O)c2ccc(Cl)cc2)c1

- Ratio (Exportin-1 [1]): 1.08
SMILES: O=C(O)c1ccc(N2CCN(CC(=O)N3CCCC3)CC2)c(NC(=O)c2ccccc2)c1

- Ratio (Exportin-1 [3]): 0.26
SMILES: Cc1ccc(Cl)cc1N1CCN(c2ccc(C(=O)O)cc2NC(=O)c2ccc(Cl)cc2)CC1
- Activity (HeLa): Active

- inhibition (Exportin-1 [2]): inactive
SMILES: COC(=O)c1ccc(N2CCN(c3cc(C)ccc3C)CC2)c(NC(=O)c2ccc(Cl)cc2)c1

- Ratio (Exportin-1 [1]): 1.09
SMILES: Cc1ccc(C)c(N2CCN(c3ccc(C(=O)O)cc3NC(=O)c3ccccc3C)CC2)c1

- Ratio (Exportin-1 [1]): 0.81
SMILES: Cc1cccc(C(=O)Nc2cc(C(=O)O)ccc2N2CCC(CCN3CCCCC3)CC2)c1

- Ratio (Exportin-1 [1]): 0.85
SMILES: O=C(O)c1ccc(N2CCN(c3ccc(F)cc3)CC2)c(NS(=O)(=O)c2cccc(F)c2)c1

- Ratio (Exportin-1 [1]): 0.81
SMILES: Cc1cccc(N2CCN(c3ccc(C(=O)O)cc3NC(=O)c3ccccc3)CC2C)c1 (centres undefined)

- Ratio (Exportin-1 [1]): 1.15
SMILES: O=C(O)c1ccc(N2CCN(c3ccc(F)cc3)CC2)c(NC(=O)c2ccc(F)cc2)c1

- inhibition (Exportin-1 [2]): inactive
SMILES: COC(=O)c1ccc(N2CCN(c3cc(Cl)ccc3C)CC2)c(NC(=O)c2ccc(C(F)(F)F)cc2)c1

- Ratio (Exportin-1 [1]): 0.72
SMILES: O=C(O)c1ccc(N2CCN(c3ccccn3)CC2)c(NC(=O)c2cccc(Cl)c2)c1

- Ratio (Exportin-1 [1]): 0.88
SMILES: COc1ccccc1N1CCN(c2ccc(C(=O)O)cc2NC(=O)c2ccc(Cl)cc2)CC1

- Ratio (Exportin-1 [1]): 0.88
SMILES: O=C(O)c1ccc(N2CCN(C3CCCCC3)CC2)c(NC(=O)c2ccc(F)cc2)c1

- Ratio (Exportin-1 [1]): 0.76
SMILES: Cc1cccc(C(=O)Nc2cc(C(=O)O)ccc2N2CCN(c3cccc(C)c3)C(C)C2)c1 (centres undefined)

- Ratio (Exportin-1 [1]): 0.88
SMILES: O=C(O)c1ccc(N2CCN(c3ccc(F)cc3)CC2)c(NS(=O)(=O)c2ccc(F)c(F)c2)c1

- Ratio (Exportin-1 [1]): 0.68
SMILES: O=C(O)c1ccc(N2CCN(c3ccccc3F)CC2)c(NC(=O)c2ccc(Br)cc2)c1

- Ratio (Exportin-1 [1]): 0.85
SMILES: O=C(O)c1ccc(N2CCN(c3ccccn3)CC2)c(NC(=O)c2ccc(Cl)cc2)c1

- inhibition (Exportin-1 [2]): inactive
SMILES: COC(=O)c1ccc(N2CCN(c3cc(Cl)ccc3C)CC2)c(NC(=O)c2ccc(Br)cc2)c1

- inhibition (Exportin-1 [2]): inactive
SMILES: COC(=O)c1ccc(N2CCN(c3ccccc3C(F)(F)F)CC2)c(NC(=O)c2ccc(Br)cc2)c1

- Ratio (Exportin-1 [1]): 0.87
SMILES: Cc1cccc(N2CCN(c3ccc(C(=O)O)cc3NC(=O)c3ccc(F)cc3)CC2C)c1 (centres undefined)

- Ratio (Exportin-1 [1]): 1.24
SMILES: O=C(O)c1ccc(N2CCN(c3ccc(F)cc3)CC2)c(NC(=O)c2ccc(Br)cc2)c1

- Ratio (Exportin-1 [3]): 0.15
SMILES: O=C(O)c1ccc(N2CCN(c3cc(C(F)(F)F)ccc3Cl)CC2)c(NC(=O)c2ccc(Br)cc2)c1
- Activity (HeLa): Active

- Ratio (Exportin-1 [1]): 0.96
SMILES: Cc1ccc(C)c(S(=O)(=O)Nc2cc(C(=O)O)ccc2N2CCN(c3ccc(F)cc3)CC2)c1

- Ratio (Exportin-1 [3]): 0.24
SMILES: Cc1ccc(Cl)cc1N1CCN(c2ccc(C(=O)O)cc2NC(=O)c2ccc(Br)cc2)CC1
- Activity (HeLa): Active

- inhibition (Exportin-1 [2]): Active
- Ratio (Exportin-1 [1]): 0.28
- inhibition (Exportin-1 [4]): inactive
SMILES: O=C(O)c1ccc(N2CCN(c3cccc(C(F)(F)F)c3)CC2)c(NC(=O)c2ccc(F)cc2)c1

- inhibition (Exportin-1 [2]): inactive
SMILES: COC(=O)c1ccc(N2CCN(c3cc(C(F)(F)F)ccc3Cl)CC2)c(NC(=O)c2ccc(Br)cc2)c1

- Ratio (Exportin-1 [1]): 0.91
SMILES: O=C(O)c1ccc(N2CCC(N3CCCCC3)CC2)c(NC(=O)c2cccc(Cl)c2)c1

- inhibition (Exportin-1 [2]): inactive
- inhibition (Exportin-1 [5]): inactive
SMILES: COC(=O)c1ccc(N2CCN(c3cc(C(F)(F)F)ccc3C(F)(F)F)CC2)c(NC(=O)c2ccc(Cl)cc2)c1

- Ratio (Exportin-1 [1]): 1.07
SMILES: Cc1cccc(S(=O)(=O)Nc2cc(C(=O)O)ccc2N2CCN(c3ccc(Cl)cc3)CC2)c1

- inhibition (Exportin-1 [2]): inactive
- inhibition (Exportin-1 [5]): inactive
SMILES: COC(=O)c1ccc(N2CCN(c3cc(C(F)(F)F)cc(C(F)(F)F)c3)CC2)c(NC(=O)c2ccc(Br)cc2)c1

- Ratio (Exportin-1 [1]): 0.82
SMILES: Cc1ccc(C)c(N2CCN(c3ccc(C(=O)O)cc3NC(=O)c3ccc(F)cc3)CC2)c1

- Ratio (Exportin-1 [1]): 0.95
SMILES: Cc1ccc(C)c(S(=O)(=O)Nc2cc(C(=O)O)ccc2N2CCN(c3ccccc3F)CC2)c1

- Ratio (Exportin-1 [1]): 0.84
SMILES: Cc1cccc(S(=O)(=O)Nc2cc(C(=O)O)ccc2N2CCN(c3ccc(F)cc3)CC2)c1

- Ratio (Exportin-1 [3]): 0.2
SMILES: Cc1ccc(C(F)(F)F)cc1N1CCN(c2ccc(C(=O)O)cc2NC(=O)c2ccc(Cl)cc2)CC1
- Activity (HeLa): Active

- Ratio (Exportin-1 [1]): 0.72
SMILES: O=C(O)c1ccc(N2CCN(Cc3cccc(F)c3)CC2)c(NC(=O)c2ccccc2)c1

- inhibition (Exportin-1 [2]): inactive
SMILES: COC(=O)c1ccc(N2CCN(c3cc(Cl)ccc3OC)CC2)c(NC(=O)c2ccc(Cl)cc2)c1

- Ratio (Exportin-1 [1]): 0.83
SMILES: O=C(O)c1ccc(N2CCC(N3CCCCC3)CC2)c(NC(=O)c2ccc(F)cc2)c1

- Ratio (Exportin-1 [3]): 0.28
SMILES: O=C(O)c1ccc(N2CCN(c3ccccc3C(F)(F)F)CC2)c(NC(=O)c2ccc(Br)cc2)c1
- Activity (HeLa): Active

- inhibition (Exportin-1 [2]): inactive
SMILES: COC(=O)c1ccc(N2CCN(c3cccc(C(F)(F)F)c3)CC2)c(NC(=O)c2ccc(Br)cc2)c1

- inhibition (Exportin-1 [2]): inactive
SMILES: COC(=O)c1ccc(N2CCN(c3cc(Cl)ccc3C)CC2)c(NC(=O)c2ccc(Cl)cc2)c1

- inhibition (Exportin-1 [2]): inactive
- inhibition (Exportin-1 [5]): inactive
SMILES: COC(=O)c1ccc(N2CCN(c3cc(C(F)(F)F)ccc3C(F)(F)F)CC2)c(NC(=O)c2ccc(Br)cc2)c1

- Ratio (Exportin-1 [1]): 0.8
SMILES: O=C(O)c1ccc(N2CCCN(c3ccc(Cl)nn3)CC2)c(NC(=O)c2ccccc2)c1

- Ratio (Exportin-1 [3]): 0.85
SMILES: COc1ccc(Cl)cc1N1CCN(c2ccc(C(=O)O)cc2NC(=O)c2ccc(Cl)cc2)CC1
- Activity (HeLa): Active

- Ratio (Exportin-1 [1]): 0.18
- inhibition (Exportin-1 [4]): inactive
SMILES: Cc1ccc(Cl)cc1N1CCN(c2ccc(C(=O)O)cc2NC(=O)c2ccc(F)cc2)CC1

- inhibition (Exportin-1 [2]): inactive
SMILES: COC(=O)c1ccc(N2CCN(c3cc(Cl)ccc3Cl)CC2)c(NC(=O)c2ccc(Cl)cc2)c1

- Ratio (Exportin-1 [1]): 0.43
- inhibition (Exportin-1 [4]): inactive
SMILES: O=C(O)c1ccc(N2CCN(c3cccc(Cl)c3)CC2)c(NS(=O)(=O)c2cccc(F)c2)c1

- Ratio (Exportin-1 [3]): 0.32
SMILES: O=C(O)c1ccc(N2CCN(c3cc(Cl)ccc3Cl)CC2)c(NC(=O)c2ccc(Cl)cc2)c1
- Activity (HeLa): Active

- Ratio (Exportin-1 [3]): 0.29
SMILES: O=C(O)c1ccc(N2CCN(c3cccc(C(F)(F)F)c3)CC2)c(NC(=O)c2ccc(Br)cc2)c1
- Activity (HeLa): Active

- Ratio (Exportin-1 [3]): 0.35
SMILES: Cc1ccc(Cl)cc1N1CCN(c2ccc(C(=O)O)cc2NC(=O)c2ccc(C(F)(F)F)cc2)CC1
- Activity (HeLa): Active

- Ratio (Exportin-1 [1]): 0.89
SMILES: O=C(O)c1ccc(N2CCN(c3cccc(F)c3)CC2)c(NC(=O)c2ccc(Cl)cc2)c1
